Data from patent publication US7342030B2, “Indole derivatives” (Hoffmann-La Roche Inc., priority 2004, dated 2008).

Test system: HEK293 cells
Experiment: Viability Assay of HEK293 Cells (CellTiter-Glo Luminescent Cell Viability Assay)
Type: cell-based
Conditions: Homo sapiens, 7 days (168 h) incubation, compounds 3 μM to 0.00015 μM, ATP luminescence
Experimental: Viability Assay of HEK293 Cells
A viability assay was performed using the CellTiter-Glo® Luminescent Cell Viability Assay (see Promega Corporation's Technical Bulletin No. 288, pp. 1-11 [revised 2/04] which is hereby incorporated by reference in its entirety). This assay is a homogeneous method of determining the number of viable cells in culture based on quantitation of the ATP present, an indicator of metabolically active cells. The assay is designed for use with multiwell formats, making it ideal for automated high-throughput screening (HTS), cell proliferation and cytotoxicity assays. The homogeneous assay procedure involves adding a single reagent (containing luciferase, luciferan substrate, and buffer) directly to cells cultured in serum-supplemented medium. Cell washing, removal of medium and multiple pipetting steps are not required. The system detects as few as 15 cells/well in a 384-well format in 10 minutes after adding reagent and mixing.
The homogeneous “add-mix-measure” format results in cell lysis and generation of a luminescent signal proportional to the amount of ATP present. The amount of ATP is directly proportional to the number of cells present in culture. The above-referenced assay generates a “glow-type” luminescent signal, produced by the luciferase reaction, which has a half-life generally greater than five hours, depending on cell type and medium used. The extended half-life eliminates the need to use reagent injectors and provides flexibility for continuous or batch mode processing of multiple plates. The unique homogeneous format avoids errors that may be introduced by other ATP measurement methods that require multiple steps.
HEK293 cells (human embryonic kidney cell line transformed by Adenovirus 5 fragments, ATCC-No. CRL 1573) were cultivated in Dulbecco's Modified Eagle Medium (D-MEM) (1×) liquid (high glucose) (which includes L-Alanyl-L-Glutamine [a stabilized a form of L-Glutamine], 4500 mg/L glucose, and 110 mg/L sodium pyruvate) from Invitrogen Coropration (Invitrogen Catalog Number 31966-021 [now 10569-010] which is hereby incorporated by reference), 5% Fetal Calf Serum (FCS, Sigma Cat-No. F4135 (FBS)), 100 Units/ml penicillin/100 μg/ml streptomycin (=Pen/Strep from Invitrogen Cat. No. 15140). For the assay the cells were seeded in 384 well plates, 5000 cells per well, in the same medium. The next day the test compounds were added in various concentrations ranging from 3 μM to 0.00015 μM (10 concentrations, 1:3 diluted).
After 7 days the above viability assay was performed in accordance with the following steps: • Step 1: The cell-plate was equilibrated to room temperature for approximately 30 minutes and than the assay reagent was added. • Step 2: The contents were carefully mixed for 15 minutes to induce cell lysis. • Step 3: After 45 minutes the luminescent signal was measured in Victor 2, (a scanning multiwell spectrophotometer, Wallac). Details:
Medium: Dulbecco's Modified Eagle Medium (D-MEM) (1×) liquid (high glucose) (which includes L-Alanyl-L-Glutamine [a stabilized a form/source of L-Glutamine], 4500 mg/L glucose, and 110 mg/L sodium pyruvate) from Invitrogen Coropration (Invitrogen Catalog Number 31966-021 [now 10569-010] which is hereby incorporated by reference in its entirety), 5% Fetal Calf Serum (FCS, Sigma Cat-No. F4135 [FBS] which is hereby incorporated by reference in its entirety), Pen/Strep contaning 100 Units/ml penicillin/100 μg/ml streptomycin (Invitrogen Catalog Number 15140, which is hereby incorporated by reference in its entirety). —HEK293 (ATCC-No. CRL 1573): 5000 cells in 60 μl per well of 384 well plate (Greiner 781098, white plates) • Incubate 24 h at 37° C., 5% CO2
2. Day: Induction (Substance Testing): […]

Compound	IC50
FC(F)(F)Oc1ccc2[nH]c(-c3nc(COc4ccc(CCCCn5ccnn5)cc4)co3)cc2c1 [Example 1, 2-{4-[4-(4-[1,2,3]Triazol-1-yl-butyl)-phenoxymethyl]-oxazol-2-yl}-5-trifluoromethoxy-1H-indole]	0.1 to 50 nM
Clc1ccc2[nH]c(-c3nc(COc4ccc(CCCCn5ccnn5)cc4)co3)cc2c1 [Example 2, 5-Chloro-2-{4-[4-(4-[1,2,3]triazol-1-yl-butyl)-phenoxymethyl]-oxazol-2-yl}-1H-indole]	0.1 to 50 nM
Fc1ccc2[nH]c(-c3nc(COc4ccc(CCCCn5ccnn5)cc4)co3)cc2c1 [Example 3, 5-Fluoro-2-{4-[4-(4-[1,2,3]triazol-1-yl-butyl)-phenoxymethyl]-oxazol-2-yl}-1H-indole]	6.6 nM
Fc1ccc2cc(-c3nc(COc4ccc(CCCCn5ccnn5)cc4)co3)[nH]c2c1 [Example 4, 6-Fluoro-2-{4-[4-(4-[1,2,3]triazol-1-yl-butyl)-phenoxymethyl]-oxazol-2-yl}-1H-indole]	0.1 to 50 nM
Cc1cc(OCc2coc(-c3cc4cc(F)ccc4[nH]3)n2)ccc1CCCCn1ccnn1 [Example 7, 5-Fluoro-2-{4-[3-methyl-4-(4-[1,2,3]triazol-1-yl-butyl)-phenoxymethyl]-oxazol-2-yl}-1H-indole]	0.1 to 50 nM
Cc1cc(OCc2coc(-c3cc4ccc(F)cc4[nH]3)n2)ccc1CCCCn1ccnn1 [Example 8, 6-Fluoro-2-{4-[3-methyl-4-(4-[1,2,3]triazol-1-yl-butyl)-phenoxymethyl]-oxazol-2-yl}-1H-indole]	0.1 to 50 nM
Clc1ccc2[nH]c(-c3nc(COc4ccc(COCCn5ccnn5)cc4)co3)cc2c1 [Example 10, 5-Chloro-2-{4-[4-(2-[1,2,3]triazol-1-yl-ethoxymethyl)-phenoxymethyl]-oxazol-2-yl}-1H-indole]	0.1 to 50 nM
Fc1ccc2[nH]c(-c3nc(COc4ccc(COCCn5ccnn5)cc4)co3)cc2c1 [Example 11, 5-Fluoro-2-{4-[4-(2-[1,2,3]triazol-1-yl-ethoxymethyl)-phenoxymethyl]-oxazol-2-yl}-1H-indole]	0.1 to 50 nM
[O-][S+](CCn1ccnn1)Cc1ccc(OCc2coc(-c3cc4cc(Cl)ccc4[nH]3)n2)cc1 (stereo not drawn) [Example 12, 5-Chloro-2-{4-[4-(2-[1,2,3]triazol-1-yl-ethanesulfinylmethyl)-phenoxymethyl]-oxazol-2-yl}-1H-indole]	500 to 1000 nM
[O-][S+](CCn1ccnn1)Cc1ccc(OCc2coc(-c3cc4cc(F)ccc4[nH]3)n2)cc1 (stereo not drawn) [Example 13, 5-Fluoro-2-{4-[4-(2-[1,2,3]triazol-1-yl-ethanesulfinylmethyl)-phenoxymethyl]-oxazol-2-yl}-1H-indole]	50 to 500 nM
FC(F)(F)Oc1ccc2[nH]c(-c3nc(COc4cccc(CCCn5ccnn5)c4)co3)cc2c1 [Example 14, 2-{4-[3-(3-[1,2,3]Triazol-1-yl-propyl)-phenoxymethyl]-oxazol-2-yl}-5-trifluoromethoxy-1H-indole]	500 to 1000 nM
Clc1ccc2cc(-c3nc(COc4cccc(CCCn5ccnn5)c4)co3)[nH]c2c1 [Example 16, 6-Chloro-2-{4-[3-(3-[1,2,3]triazol-1-yl-propyl)-phenoxymethyl]-oxazol-2-yl}-1H-indole]	0.1 to 50 nM
Clc1ccc2[nH]c(-c3nc(COc4ccc(CCCCn5ccnn5)cc4)cs3)cc2c1 [Example 17, 5-Chloro-2-{4-[4-(4-[1,2,3]triazol-1-yl-butyl)-phenoxymethyl]-thiazol-2-yl}-1H-indole]	0.1 to 50 nM
Clc1ccc2[nH]c(-c3nc(COc4ccc(COCCn5ccnn5)cc4)cs3)cc2c1 [Example 18, 5-Chloro-2-{4-[4-(2-[1,2,3]triazol-1-yl-ethoxymethyl)-phenoxymethyl]-thiazol-2-yl}-1H-indole]	50 to 500 nM
O=S(=O)(Cc1coc(-c2cc3cc(F)ccc3[nH]2)n1)c1ccc(CCCCn2ccnn2)cc1 [Example 21, 5-Fluoro-2-{4-[4-(4-[1,2,3]triazol-1-yl-butyl)-benzenesulfonylmethyl]-oxazol-2-yl}-1H-indole]	50 to 500 nM
FC(F)(F)Oc1ccc2[nH]c(-c3nc(CNc4ccc(CCCCn5ccnn5)cc4)co3)cc2c1 [Example 22, [4-(4-[1,2,3]Triazol-1-yl-butyl)-phenyl]-[2-(5-trifluoromethoxy-1H-indol-2-yl)-oxazol-4-ylmethyl]-amine]	50 to 500 nM
Fc1ccc2cc(-c3nc(CNc4ccc(CCCCn5ccnn5)cc4)co3)[nH]c2c1 [Example 23, [2-(6-Fluoro-1H-indol-2-yl)-oxazol-4-ylmethyl]-[4-(4-[1,2,3]triazol-1-yl-butyl)-phenyl]-amine]	0.1 to 50 nM
Fc1ccc2[nH]c(-c3nc(CNc4ccc(CCCCn5ccnn5)cc4)co3)cc2c1 [Example 24, [2-(5-Fluoro-1H-indol-2-yl)-oxazol-4-ylmethyl]-[4-(4-[1,2,3]triazol-1-yl-butyl)-phenyl]-amine]	37 nM
Cc1cc(NCc2coc(-c3cc4cc(Cl)ccc4[nH]3)n2)ccc1CCCCn1ccnn1 [Example 29, [2-(5-Chloro-1H-indol-2-yl)-oxazol-4-ylmethyl]-[3-methyl-4-(4-[1,2,3]triazol-1-yl-butyl)-phenyl]-amine]	0.1 to 50 nM
Fc1ccc2[nH]c(-c3nc(CNc4ccc(CCCCn5ccnn5)c(F)c4)co3)cc2c1 [Example 32, [2-(5-Fluoro-1H-indol-2-yl)-oxazol-4-ylmethyl]-[3-fluoro-4-(4-[1,2,3]triazol-1-yl-butyl)-phenyl]-amine]	0.1 to 50 nM
Fc1cc(NCc2coc(-c3cc4cc(Cl)ccc4[nH]3)n2)ccc1CCCCn1ccnn1 [Example 33, [2-(5-Chloro-1H-indol-2-yl)-oxazol-4-ylmethyl]-[3-fluoro-4-(4-[1,2,3]triazol-1-yl-butyl)-phenyl]-amine]	0.1 to 50 nM
Fc1cc(CCCCn2ccnn2)ccc1NCc1coc(-c2cc3cc(Cl)ccc3[nH]2)n1 [Example 35, [2-(5-Chloro-1H-indol-2-yl)-oxazol-4-ylmethyl]-[2-fluoro-4-(4-[1,2,3]triazol-1-yl-butyl)-phenyl]-amine]	50 to 500 nM
Fc1ccc2[nH]c(-c3nc(CNc4ccc(CCCCn5ccnn5)nc4)co3)cc2c1 [Example 38, [2-(5-Fluoro-1H-indol-2-yl)-oxazol-4-ylmethyl]-[6-(4-[1,2,3]triazol-1-yl-butyl)-pyridin-3-yl]-amine]	50 to 500 nM
Cc1cc(OCc2coc(-c3cc4cc(F)ccc4[nH]3)n2)ccc1COCCn1ccnn1 [Example 40, 5-Fluoro-2-{4-[3-methyl-4-(2-[1,2,3]triazol-1-yl-ethoxymethyl)-phenoxymethyl]-oxazol-2-yl}-1H-indole]	0.1 to 50 nM
